No end group written: not given here.
Experiments:
[1] = test system: Caco-2 cells (human intestinal epithelial cells); experiment: Membrane strengthening experiment (TER recovery of barrier function after TNF-α); assay type: cell-based; conditions: for function of strengthening the barrier function (membrane-strengthening ability): result in words, FIG. 1A-1H
[2] = 500 to 1,000 ppm of quercetin added to the feed; cited from earlier work
[3] = test system: intestinal microbiota; conditions: cited from earlier work
[4] = Chicken growth test (body weight gain and feed conversion ratio); assay type: in vivo, broiler chickens
[5] = test system: Salmonella enterica (SE); experiment: Salmonella infection test in chickens (body weight gain and feed conversion ratio); assay type: in vivo, chickens (broilers); conditions: for BWG / FCR: 0-3 week, SE orally at 2 days of age; for body weight gain effect and feed conversion ratio improvement effect: result in words, Salmonella enterica infected broilers, test feed 21 days
Description: The coated-Tyr and Tyr prepared in the same manner as in Example 2-1 were added to the feed matrix having the composition presented in Table 2 so that the amount of the core material was 200 ppm, to thereby prepare a feed. Broilers at 1 day of age were introduced into a breeding facility for infection test (6 broilers/repeat and 2 repeats/test group), then Salmonella enterica (SE) was orally administered to the broilers at 2 days of age, and the test feed was fed for 21 days to evaluate the body weight gain effect and feed conversion ratio of chickens. Note that a conventional antimicrobial growth promoter, enramycin, was used as a positive control. As enramycin, a commercially available product (“Enramycin F-80” manufactured by Scientific Feed Laboratory Co., Ltd., uncoated) was used as it was.
The results are presented with a negative control of 100. […]
Broilers at 0 days of age were introduced into a breeding facility for infection test (6 broilers/repeat and 2 repeats/test group), then Salmonella enterica (SE) was orally administered to the broilers at 2 days of age, and the test feed was fed for 21 days to evaluate the body weight gain effect and feed conversion ratio. Note that a conventional antimicrobial growth promoter, enramycin, was used as a positive control. As enramycin, a commercially available product (“Enramycin F-80” manufactured by Scientific Feed Laboratory Co., Ltd., uncoated) was used as it was.

[6] = Metabolome analysis of intestinal tract contents and blood; assay type: in vivo, chickens; conditions: metabolome analysis; chicken growth test of 2-3
Description: It is thus considered that coated-Phe and coated-Tyr are assimilated by intestinal bacteria in feces and rapidly metabolized in blood.

[7] = test system: Clostridium perfringens; assay type: cell-based; set-up: key: “+” to “+++++”: indicates the strength of antibacterial effect. The more “+”, the stronger the effect.; “+” to “+++++”: indicates the strength of antibacterial effect. The more “+”, the stronger the effect.; “+” to “+++++”: indicates the strength of antibacterial effect. The more “+”, the stronger the effect.; “+” to “+++++”: indicates the strength of antibacterial effect. The more “+”, the stronger the effect.; “+” to “+++++”: indicates the strength of antibacterial effect. The more “+”, the stronger the effect.; “ND”: indicates no effect detected (not detected); conditions: Nisin A and Duramycin 1 mg/ml, others 10-fold concentrated culture supernatant of producers
[8] = test system: Lactobacillus acidophilus; experiment: Antibacterial spectrum of bacteriocin, spot-on lawn method; assay type: cell-based; set-up: key: “+” to “+++++”: indicates the strength of antibacterial effect. The more “+”, the stronger the effect.; “+” to “+++++”: indicates the strength of antibacterial effect. The more “+”, the stronger the effect.; “+” to “+++++”: indicates the strength of antibacterial effect. The more “+”, the stronger the effect.; “+” to “+++++”: indicates the strength of antibacterial effect. The more “+”, the stronger the effect.; “+” to “+++++”: indicates the strength of antibacterial effect. The more “+”, the stronger the effect.; “ND”: indicates no effect detected (not detected); conditions: Nisin A and Duramycin 1 mg/ml, others 10-fold concentrated culture supernatant of producers
[9] = test system: Bifidobacterium thermophilum AJ110569; experiment: as above; assay type: cell-based; set-up: key: “+” to “+++++”: indicates the strength of antibacterial effect. The more “+”, the stronger the effect.; “+” to “+++++”: indicates the strength of antibacterial effect. The more “+”, the stronger the effect.; “+” to “+++++”: indicates the strength of antibacterial effect. The more “+”, the stronger the effect.; “+” to “+++++”: indicates the strength of antibacterial effect. The more “+”, the stronger the effect.; “+” to “+++++”: indicates the strength of antibacterial effect. The more “+”, the stronger the effect.; “ND”: indicates no effect detected (not detected); conditions: Nisin A and Duramycin 1 mg/ml, others 10-fold concentrated culture supernatant of producers
[10] = test system: Bacteroides fragilis JCM11019; experiment: as above; assay type: cell-based; set-up: key: “+” to “+++++”: indicates the strength of antibacterial effect. The more “+”, the stronger the effect.; “+” to “+++++”: indicates the strength of antibacterial effect. The more “+”, the stronger the effect.; “+” to “+++++”: indicates the strength of antibacterial effect. The more “+”, the stronger the effect.; “+” to “+++++”: indicates the strength of antibacterial effect. The more “+”, the stronger the effect.; “+” to “+++++”: indicates the strength of antibacterial effect. The more “+”, the stronger the effect.; “ND”: indicates no effect detected (not detected); conditions: Nisin A and Duramycin 1 mg/ml, others 10-fold concentrated culture supernatant of producers
[11] = test system: Lactobacillus acidophilus AJ13778; experiment: Minimum inhibitory concentration, spot-on-lawn method; assay type: cell-based; conditions: indicator strain Lactobacillus acidophilus AJ13778; MRS, 37° C.
[12] = test system: Lactobacillus salivarius AJ110152; experiment: as above; assay type: cell-based; conditions: indicator strain Lactobacillus salivarius AJ110152; MRS, 37° C.
[13] = test system: Clostridium perfringens AJ3350; experiment: microbe, parasite or virus in culture; assay type: cell-based
[14] = test system: Enterococcus faecalis AJ110149; experiment: Minimum inhibitory concentration, spot-on-lawn method; assay type: cell-based; conditions: indicator strain Enterococcus faecalis AJ110149; MRS, 30° C.; ND = no effect detected
[15] = test system: Escherichia coli MG1665; experiment: as above; assay type: cell-based
[16] = test system: Bacteroides fragilis JCM11019; experiment: as above; assay type: cell-based; conditions: indicator strain Bacteroides fragilis JCM11019; GAM, 37° C.
[17] = test system: Bifidobacterium thermophilum AJ110569; experiment: as above; assay type: cell-based; conditions: indicator strain Bifidobacterium thermophilum AJ110569; GAM, 37° C.
[18] = test system: Salmonella enterica AJ2785; experiment: microbe, parasite or virus in culture; assay type: cell-based
[19] = test system: Salmonella enterica (SE); experiment: Salmonella infection test in chickens (body weight gain and feed conversion ratio); assay type: in vivo, chickens (broilers); conditions: Table 5; 0-3 week; addition 10 ppm; SE orally at 2 days of age; negative control = 100
[20] = test system: Lactobacillus salivarius AJ110152; experiment: Antibacterial spectrum of bacteriocin, spot-on lawn method; assay type: cell-based; set-up: key: “+” to “+++++”: indicates the strength of antibacterial effect. The more “+”, the stronger the effect.; “+” to “+++++”: indicates the strength of antibacterial effect. The more “+”, the stronger the effect.; “+” to “+++++”: indicates the strength of antibacterial effect. The more “+”, the stronger the effect.; “+” to “+++++”: indicates the strength of antibacterial effect. The more “+”, the stronger the effect.; “+” to “+++++”: indicates the strength of antibacterial effect. The more “+”, the stronger the effect.; “ND”: indicates no effect detected (not detected); conditions: Nisin A and Duramycin 1 mg/ml, others 10-fold concentrated culture supernatant of producers
[21] = test system: Escherichia coli MG1655; experiment: as above; assay type: cell-based; set-up: key: “+” to “+++++”: indicates the strength of antibacterial effect. The more “+”, the stronger the effect.; “+” to “+++++”: indicates the strength of antibacterial effect. The more “+”, the stronger the effect.; “+” to “+++++”: indicates the strength of antibacterial effect. The more “+”, the stronger the effect.; “+” to “+++++”: indicates the strength of antibacterial effect. The more “+”, the stronger the effect.; “+” to “+++++”: indicates the strength of antibacterial effect. The more “+”, the stronger the effect.; “ND”: indicates no effect detected (not detected); conditions: Nisin A and Duramycin 1 mg/ml, others 10-fold concentrated culture supernatant of producers
[22] = test system: Enterococcus faecalis AJ110149; experiment: as above; assay type: cell-based; set-up: key: “+” to “+++++”: indicates the strength of antibacterial effect. The more “+”, the stronger the effect.; “+” to “+++++”: indicates the strength of antibacterial effect. The more “+”, the stronger the effect.; “+” to “+++++”: indicates the strength of antibacterial effect. The more “+”, the stronger the effect.; “+” to “+++++”: indicates the strength of antibacterial effect. The more “+”, the stronger the effect.; “+” to “+++++”: indicates the strength of antibacterial effect. The more “+”, the stronger the effect.; “ND”: indicates no effect detected (not detected); conditions: Nisin A and Duramycin 1 mg/ml, others 10-fold concentrated culture supernatant of producers
[23] = material conc. 100 uM, comparison value with Ctr (TNFα alone), 24 h
[24] = Table 4, 0-3 weeks, addition 200 ppm (core material) in feed
[25] = Table 5, addition 200 ppm, negative control = 100
[26] = Table 8, 10 ppm, control group = 100%

O=c1c(O)c(-c2ccc(O)c(O)c2)oc2cc(O)cc(O)c12 [Quercetin, quercetin]
activity at 100 µM ([1]; Homo sapiens, Caco-2, material conc. 100 uM, TER barrier function recovery, 24 h, read-out: Recovery ratio (%)): 138% | Recovery ratio/ctr [1, 23]: 1.23 | function of strengthening the barrier function (membrane-strengthening ability) [1]: observed to have the function of strengthening the barrier function | body weight gain effect (body weight gain efficiency) and feed consumption [2]: did not increase | feed conversion ratio [2]: remained almost unchanged or slightly decreased | effect on the intestinal microbiota [3]: negative effect

N[C@@H](Cc1ccc(O)cc1)C(=O)O [Tyrosin, tyrosine]
Recovery ratio/ctr ([1]; 24 h, 20 µM): 1.19 | activity at 20 µM ([1]; Homo sapiens, Caco-2, material conc. 20 uM, TER barrier function recovery, 24 h, read-out: Recovery ratio (%)): 138% | function of strengthening the barrier function (membrane-strengthening ability) [1]: observed to have the function of strengthening the barrier function | BWG [4, 24]: 104% | FCR [4, 24]: 98% | body weight gain effect and feed conversion ratio improvement effect ([4]; result in words, healthy broilers, 0 to 21 days of age): A certain degree of body weight gain effect was confirmed | BWG [5, 25]: 96% | FCR [5, 25]: 100% | body weight gain effect and feed conversion ratio improvement effect [5]: no effect | detection in the intestinal tract contents or blood [6]: not detected

duramycin
Recovery ratio (%) ([1]; material conc. 1 uM, TER barrier function recovery, 24 h): 120% | Recovery ratio/ctr ([1]; material conc. 1 uM, comparison value with Ctr (TNFα alone), 24 h): 1.04 | Antibacterial spectrum (strength of antibacterial effect) [7]: +++++ | Antibacterial spectrum (strength of antibacterial effect) [8]: + | Antibacterial spectrum (strength of antibacterial effect) [9]: ++ | Antibacterial spectrum (strength of antibacterial effect) [10]: +

enramycin
Recovery ratio (%) ([1]; material conc. 100 uM, TER barrier function recovery, 24 h): 144% | Recovery ratio/ctr [1, 23]: 1.28 | BWG [5, 26]: 107% | FCR [5, 26]: 98% | Minimum inhibitory concentration [11]: 500 µg/mL | Minimum inhibitory concentration [12]: 500 µg/mL | Minimum inhibitory concentration [13]: 1000 µg/mL | Minimum inhibitory concentration [14]: 4000 µg/mL | Minimum inhibitory concentration [15]: >100000 µg/mL | Minimum inhibitory concentration [16]: 64000 µg/mL | Minimum inhibitory concentration [17]: 500 µg/mL | Minimum inhibitory concentration [18]: >100000 µg/mL | BWG [19]: 107% | FCR [19]: 98%

nisin A (ITSISLCTPGCKTGALMGCNMKTATCHCSIHVSK; not fully specified (some residues, bridges); also: lantibiotic (ring and dehydro residues not placed); UniProt P13068 24-57, looked up) [reagent manufactured by Sigma-Aldrich, nisin content 2.5% by mass, balance sodium chloride and denatured milk solids]
function of strengthening the barrier function (membrane-strengthening ability) [1]: observed to have the function of strengthening the barrier function | BWG [5, 26]: 101% | FCR [5, 26]: 100% | body weight gain effect and feed conversion ratio improvement effect [5]: no effect | Antibacterial spectrum (strength of antibacterial effect) [7]: +++++ | Antibacterial spectrum (strength of antibacterial effect) [8]: ++++ | Antibacterial spectrum (strength of antibacterial effect) [20]: +++++ | Antibacterial spectrum (strength of antibacterial effect) [9]: +++++ | Antibacterial spectrum (strength of antibacterial effect) [10]: ++++ | Antibacterial spectrum (strength of antibacterial effect) [21]: ++ | Antibacterial spectrum (strength of antibacterial effect) [22]: +++++

Reference: patent US11857596B2, “Animal feed additive and animal feed” (priority 2018, dated 2024)
